Measurements reported in US20150105252A1, “SUBSTITUTED PYRAZOLES AS HERBICIDES” (E I DU PONT DE NEMOURS AND COMPANY, priority 2013, published 2015).

Columns and labels:
corn [1] = experiment: Test A preemergence; type: in vivo, Zea mays; conditions: preemergence
Method in brief: (§1)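 Injury readout: eye-scored versus untreated controls, 0 to 100. Exposure period: ~10 days, greenhouse. Application: soil-directed spray over sown seed (pre) or spray on seedlings 2–10 cm tall with one or two leaves (post), compound carried in non-phytotoxic solvent including surfactant.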

crabgrass, large [2] = experiment: Test A postemergence; type: in vivo, Digitaria sanguinalis
Method in brief: as §1

barnyardgrass [3] = experiment: Test A preemergence; type: in vivo, Echinochloa crus-galli; conditions: preemergence
Method in brief: as §1

blackgrass = experiment: Test C preemergence; type: in vivo, Alopecurus myosuroides; conditions: for Plant response rating (scale of 0 to 100), Blackgrass: 250 g ai/ha
From the text: (§2) Seeds of plant species selected from blackgrass (Alopecurus myosuroides), ryegrass, Italian (Italian ryegrass, Lolium multiflorum), wheat (winter wheat, Triticum aestivum), galium (catchweed bedstraw, Galium aparine), corn (Zea mays), crabgrass, large (large crabgrass, Digitaria sanguinalis), foxtail, giant (giant foxtail, Setaria faberii), johnsongrass (Sorghum halepense), lambsquarters (Chenopodium album), morningglory (Ipomoea coccinea), nutsedge, yellow (yellow nutsedge, Cyperus esculentus), pigweed (redroot pigweed, Amaranthus retroflexus), ragweed (common ragweed, Ambrosia elation), soybean (Glycine max), barnyardgrass (Echinochloa crus-galli), oilseed rape (Brassica napus), waterhemp (common waterhemp, Amaranthus rudis), oat, wild (wild oat, Avena fatua), kochia (Kochia scoparia), Surinam grass (Brachiaria decumbens), foxtail, green (green foxtail, Setaria viridis), goosegrass (Eleusine indica), bromegrass, downy (downy bromegrass, Bromus tectorum), nightshade (eastern black nightshade, Solanum ptycanthum), cocklebur (common cocklebur, Xanthium strumarium), cupgrass, woolly (woolly cupgrass, Eriochloa villosa), bermudagrass (Cynodon dactylon), sunflower, (common oilseed sunflower, Helianthus annuus), Russian thistle (Salsola kali), and velvetleaf (Abutilon theophrasti) were planted into a blend of loam soil and sand and treated preemergence with test chemicals formulated in a non-phytotoxic solvent mixture which included a surfactant.
(§3) At the same time, plants selected from these crop and weed species and also chickweed (common chickweed, Stellaria media), canarygrass (littleseed canarygrass, Phalaris minor), and deadnettle (henbit deadnettle, Lamium amplexicaule), were planted in pots containing Redi-Earth® planting medium (Scotts Company, 14111 Scottslawn Road, Marysville, Ohio 43041) comprising spaghnum peat moss, vermiculite, wetting agent and starter nutrients and treated with postemergence applications of test chemicals formulated in the same manner. Plants ranged in height from 2 to 18 cm (1- to 4-leaf stage) for postemergence treatments. Treated plants and controls were maintained in a greenhouse for 13 to 15 days, after which time all species were compared to controls and visually evaluated. Plant response ratings, summarized in Table C, are based on a scale of 0 to 100 where 0 is no effect and 100 is complete control. A dash (-) response means no test result.

crabgrass, large [4] = experiment: Test A preemergence; type: in vivo, Digitaria sanguinalis; conditions: preemergence
Method in brief: as §1

pigweed [5] = experiment: Test A postemergence; type: in vivo, Amaranthus retroflexus
Method in brief: as §1

morningglory = experiment: Test A preemergence; type: in vivo, Ipomoea spp.; conditions: preemergence
Method in brief: as §1

corn [6] = experiment: Test C preemergence; type: in vivo, Zea mays; conditions: for Plant response rating (scale of 0 to 100), Corn: 250 g ai/ha
From the text: as §2, §3

velvetleaf [7] = experiment: Test A preemergence; type: in vivo, Abutilon theophrasti; conditions: preemergence
Method in brief: as §1

wheat = experiment: Test C preemergence; type: in vivo, Triticum aestivum; conditions: for Plant response rating (scale of 0 to 100), Wheat: 250 g ai/ha
From the text: as §2, §3

barnyardgrass [8] = experiment: Test A postemergence; type: in vivo, Echinochloa crus-galli
Method in brief: as §1

pigweed [9] = experiment: Test A preemergence; type: in vivo, Amaranthus retroflexus; conditions: preemergence
Method in brief: as §1

oilseed rape = experiment: Test C preemergence; type: in vivo, Brassica napus; conditions: for Plant response rating (scale of 0 to 100), Oilseed Rape: 250 g ai/ha
Method in brief: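 Postemergence values come from plants sprayed at the 1- to 4-leaf stage (2–18 cm) in peat moss–vermiculite medium; preemergence values from seeds treated in a loam–sand blend. Both evaluated visually against controls after 13–15 greenhouse days, scale 0–100.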

rice = experiment: Test B flood; type: in vivo, Oryza sativa; conditions: 250 g ai/ha, visual rating on 0 to 100 scale (0 no effect, 100 complete control), 13 to 15 days
Method in brief: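 Visual ratings on a 0–100 scale, where 0 means no effect and 100 means complete control, were assigned by comparison with controls 13 to 15 days after treatment. Compounds went into paddy water over 2-leaf plants flooded to 3 cm.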

velvetleaf [10] = experiment: Test A postemergence; type: in vivo, Abutilon theophrasti
Method in brief: as §1

[11] = 125 g ai/ha, visual injury, 0 to 100 scale, approx. 10 days
[12] = 500 g ai/ha, visual injury after approx. 10 days, 0 to 100 scale (0 no effect, 100 complete control)
[13] = Postemergence, 500 g ai/ha, visual rating after approx. 10 days, 0 to 100 scale (0 no effect, 100 complete control)
[14] = postemergence, 125 g ai/ha, about 10 days, visual rating on 0 to 100 scale (0 no effect, 100 complete control)
[15] = preemergence, 31 g ai/ha, visual rating, scale 0 to 100 (0 no effect, 100 complete control), 13 to 15 days
[16] = preemergence, 62 g ai/ha, 13 to 15 days, scale 0 to 100, 0 = no effect, 100 = complete control
[17] = preemergence, 125 g ai/ha, scale 0 to 100, 0 is no effect, 100 is complete control
[18] = Preemergence, 16 g ai/ha, scale 0 to 100

CCc1cc(C(=O)NC2CC2)nn1Cc1ccnc(OC(F)F)c1 [Compound 98]
95: Plant response rating (scale of 0 to 100), Corn (corn [6]; Preemergence)
0: Plant response rating, Rice (rice)
90: Crabgrass, Large plant response rating (crabgrass, large [2]; [13]) | Crabgrass, Large plant response rating (crabgrass, large [2]; [14]) | Barnyardgrass plant response rating (barnyardgrass [3]; [11]) | Corn plant response rating (corn [6]; [17]) | Plant response rating (scale of 0 to 100), Wheat (wheat; Preemergence) | Barnyardgrass plant response rating (barnyardgrass [8]; [13]) | Barnyardgrass plant response rating (barnyardgrass [8]; [14])
45: Plant response rating, Corn (corn [6]; [16]) | Plant response rating, Wheat (wheat; [16])
80: Corn plant response rating (corn [1]; [12])
30: Wheat plant response rating (wheat; [15])
100: Barnyardgrass plant response rating (barnyardgrass [3]; [12]) | Plant response rating (scale of 0 to 100), Blackgrass (blackgrass; Preemergence) | Plant response rating, Blackgrass (blackgrass; [16]) | Blackgrass plant response rating (blackgrass; [17]) | Crabgrass, Large plant response rating (crabgrass, large [4]; [11]) | Crabgrass, Large plant response rating (crabgrass, large [4]; [12]) | Pigweed plant response rating (pigweed [5]; [13]) | Pigweed plant response rating (pigweed [5]; [14]) | Morningglory plant response rating (morningglory; [11]) | Morningglory plant response rating (morningglory; [12]) | Velvetleaf plant response rating (velvetleaf [7]; [11]) | Velvetleaf plant response rating (velvetleaf [7]; [12]) | Pigweed plant response rating (pigweed [9]; [11]) | Pigweed plant response rating (pigweed [9]; [12]) | Plant response rating (scale of 0 to 100), Oilseed Rape (oilseed rape; Preemergence) | Oilseed Rape plant response rating (oilseed rape; [15]) | Plant response rating, Oilseed Rape (oilseed rape; [16]) | Oilseed Rape plant response rating (oilseed rape; [17]) | Velvetleaf plant response rating (velvetleaf [10]; [13])
35: Corn plant response rating (corn [6]; [15])
70: Corn plant response rating (corn [1]; [11]) | Blackgrass plant response rating (blackgrass; [15]) | Wheat plant response rating (wheat; [17]) | Velvetleaf plant response rating (velvetleaf [10]; [14])

CCc1cc(C(=O)NOC(C)C)nn1Cc1ccnc(C(F)(F)F)c1 [Compound 101]
70: Corn plant response rating (corn [1]; [11])
98: Plant response rating, Oilseed Rape (oilseed rape; [16])
95: Blackgrass plant response rating (blackgrass; [17]) | Plant response rating, Corn (corn [6]; [16])
50: Velvetleaf plant response rating (velvetleaf [10]; [14])
85: Plant response rating, Wheat (wheat; [16]) | Wheat plant response rating (wheat; [17])
30: Plant response rating, Blackgrass (blackgrass; [18])
100: Corn plant response rating (corn [1]; [12]) | Barnyardgrass plant response rating (barnyardgrass [3]; [11]) | Barnyardgrass plant response rating (barnyardgrass [3]; [12]) | Crabgrass, Large plant response rating (crabgrass, large [4]; [11]) | Crabgrass, Large plant response rating (crabgrass, large [4]; [12]) | Morningglory plant response rating (morningglory; [12]) | Corn plant response rating (corn [6]; [17]) | Velvetleaf plant response rating (velvetleaf [7]; [12]) | Pigweed plant response rating (pigweed [9]; [11]) | Pigweed plant response rating (pigweed [9]; [12]) | Oilseed Rape plant response rating (oilseed rape; [17])
40: Velvetleaf plant response rating (velvetleaf [7]; [11])
90: Crabgrass, Large plant response rating (crabgrass, large [2]; [13]) | Plant response rating, Blackgrass (blackgrass; [16]) | Pigweed plant response rating (pigweed [5]; [13]) | Barnyardgrass plant response rating (barnyardgrass [8]; [13]) | Oilseed Rape plant response rating (oilseed rape; [15])
5: Wheat plant response rating (wheat; [15])
75: Blackgrass plant response rating (blackgrass; [15]) | Plant response rating, Oilseed Rape (oilseed rape; [18])
0: Plant response rating, Corn (corn [6]; [18]) | Corn plant response rating (corn [6]; [15]) | Plant response rating, Wheat (wheat; [18]) | Plant response rating, Rice (rice)
60: Pigweed plant response rating (pigweed [5]; [14])
80: Crabgrass, Large plant response rating (crabgrass, large [2]; [14]) | Morningglory plant response rating (morningglory; [11]) | Barnyardgrass plant response rating (barnyardgrass [8]; [14]) | Velvetleaf plant response rating (velvetleaf [10]; [13])

CCc1cc(C(=O)NC(C)C)nn1Cc1ccnc(C(F)(F)F)c1 [Compound 103]
10: Wheat plant response rating (wheat; [15])
90: Corn plant response rating (corn [1]; [12]) | Crabgrass, Large plant response rating (crabgrass, large [2]; [14]) | Pigweed plant response rating (pigweed [5]; [13]) | Pigweed plant response rating (pigweed [5]; [14]) | Plant response rating, Wheat (wheat; [16]) | Barnyardgrass plant response rating (barnyardgrass [8]; [13]) | Barnyardgrass plant response rating (barnyardgrass [8]; [14])
70: Corn plant response rating (corn [1]; [11]) | Velvetleaf plant response rating (velvetleaf [10]; [14])
98: Plant response rating (scale of 0 to 100), Wheat (wheat; Preemergence)
100: Crabgrass, Large plant response rating (crabgrass, large [2]; [13]) | Barnyardgrass plant response rating (barnyardgrass [3]; [11]) | Barnyardgrass plant response rating (barnyardgrass [3]; [12]) | Plant response rating (scale of 0 to 100), Blackgrass (blackgrass; Preemergence) | Blackgrass plant response rating (blackgrass; [15]) | Plant response rating, Blackgrass (blackgrass; [16]) | Blackgrass plant response rating (blackgrass; [17]) | Crabgrass, Large plant response rating (crabgrass, large [4]; [11]) | Crabgrass, Large plant response rating (crabgrass, large [4]; [12]) | Morningglory plant response rating (morningglory; [11]) | Morningglory plant response rating (morningglory; [12]) | Plant response rating (scale of 0 to 100), Corn (corn [6]; Preemergence) | Plant response rating, Corn (corn [6]; [16]) | Corn plant response rating (corn [6]; [17]) | Velvetleaf plant response rating (velvetleaf [7]; [11]) | Velvetleaf plant response rating (velvetleaf [7]; [12]) | Pigweed plant response rating (pigweed [9]; [11]) | Pigweed plant response rating (pigweed [9]; [12]) | Plant response rating (scale of 0 to 100), Oilseed Rape (oilseed rape; Preemergence) | Oilseed Rape plant response rating (oilseed rape; [15]) | Plant response rating, Oilseed Rape (oilseed rape; [16]) | Oilseed Rape plant response rating (oilseed rape; [17])
95: Wheat plant response rating (wheat; [17])
50: Plant response rating, Rice (rice)
75: Corn plant response rating (corn [6]; [15])
80: Velvetleaf plant response rating (velvetleaf [10]; [13])

CCOc1cc(C(=O)NCC(F)(F)F)nn1Cc1ccnc(C(F)(F)F)c1 [Compound 104]
65: Plant response rating, Corn (corn [6]; [16])
40: Corn plant response rating (corn [6]; [15]) | Wheat plant response rating (wheat; [15]) | Plant response rating, Rice (rice)
100: Barnyardgrass plant response rating (barnyardgrass [3]; [11]) | Barnyardgrass plant response rating (barnyardgrass [3]; [12]) | Crabgrass, Large plant response rating (crabgrass, large [4]; [11]) | Crabgrass, Large plant response rating (crabgrass, large [4]; [12]) | Pigweed plant response rating (pigweed [5]; [13]) | Pigweed plant response rating (pigweed [5]; [14]) | Morningglory plant response rating (morningglory; [11]) | Morningglory plant response rating (morningglory; [12]) | Velvetleaf plant response rating (velvetleaf [7]; [11]) | Velvetleaf plant response rating (velvetleaf [7]; [12]) | Pigweed plant response rating (pigweed [9]; [11]) | Pigweed plant response rating (pigweed [9]; [12]) | Plant response rating (scale of 0 to 100), Oilseed Rape (oilseed rape; Preemergence) | Oilseed Rape plant response rating (oilseed rape; [15]) | Plant response rating, Oilseed Rape (oilseed rape; [16]) | Oilseed Rape plant response rating (oilseed rape; [17]) | Velvetleaf plant response rating (velvetleaf [10]; [13])
85: Blackgrass plant response rating (blackgrass; [15])
90: Crabgrass, Large plant response rating (crabgrass, large [2]; [13]) | Crabgrass, Large plant response rating (crabgrass, large [2]; [14]) | Plant response rating (scale of 0 to 100), Blackgrass (blackgrass; Preemergence) | Plant response rating, Blackgrass (blackgrass; [16]) | Blackgrass plant response rating (blackgrass; [17]) | Plant response rating (scale of 0 to 100), Wheat (wheat; Preemergence) | Wheat plant response rating (wheat; [17]) | Barnyardgrass plant response rating (barnyardgrass [8]; [13]) | Barnyardgrass plant response rating (barnyardgrass [8]; [14]) | Velvetleaf plant response rating (velvetleaf [10]; [14])
98: Plant response rating (scale of 0 to 100), Corn (corn [6]; Preemergence) | Corn plant response rating (corn [6]; [17])
60: Corn plant response rating (corn [1]; [11]) | Plant response rating, Wheat (wheat; [16])
80: Corn plant response rating (corn [1]; [12])
